From the supplement of paper PMC9938120

Legend:
Experiment in all cases: drug sensitivity score (DSS3, normalised partial AUC of % inhibition dose-response) (DSS (score)); higher = more sensitive (stronger inhibition of viability); extreme values may be limits of the assay
FMOC02_1 = patient-derived low-grade serous ovarian cancer cells; settings: 72 h; library: FO5A; assay format: 2D, 384-well, CellTiter-Glo
Outline: (§1)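 Patient-derived ovarian cancer cells (early passage, under 10) were dispensed onto 384-well flat clear-bottom plates pre-plated with compounds at five concentrations covering a 10,000-fold range. Plates were incubated 72 h at 37 °C, 5% CO2, and viability was read with CellTiter-Glo. Data were processed in Breeze. The drug sensitivity score (DSS3) is a partial area under the percent-inhibition dose-response curve, divided by the log of the upper asymptote; higher means more sensitive.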

FMOC02_2 = patient-derived low-grade serous ovarian cancer cells; settings: 72 h; library: FO5A; assay format: 2D, 384-well, CellTiter-Glo
Outline: as §1

FMOC02_3 = patient-derived low-grade serous ovarian cancer cells; settings: 72 h; library: FO5A; assay format: 2D, 384-well, CellTiter-Glo
Outline: as §1

FMOC03 = patient-derived mucinous ovarian cancer cells; settings: 72 h; library: FO5A; assay format: 2D, 384-well, CellTiter-Glo
Outline: as §1

FMOC04 = patient-derived high-grade serous ovarian cancer cells; settings: 72 h; library: FO5A; assay format: 2D, 384-well, CellTiter-Glo
Outline: as §1

FMOC06 = patient-derived mucinous ovarian cancer cells; settings: 72 h; library: FO5A; assay format: 2D, 384-well, CellTiter-Glo
Outline: as §1

FMOC09 = patient-derived high-grade serous ovarian cancer cells; settings: 72 h; library: FO5A; assay format: 2D, 384-well, CellTiter-Glo
Outline: as §1

FMOC11 = patient-derived high-grade serous ovarian cancer cells; settings: 72 h; library: FO5A; assay format: 2D, 384-well, CellTiter-Glo
Outline: as §1

FMOC14 = patient-derived high-grade serous ovarian cancer cells; settings: 72 h; library: FO5A; assay format: 2D, 384-well, CellTiter-Glo
Outline: as §1

FMOC17 = patient-derived low-grade serous ovarian cancer cells; settings: 72 h; library: FO5A; assay format: 2D, 384-well, CellTiter-Glo
Outline: as §1

FMOC22 = patient-derived mucinous ovarian cancer cells; settings: 72 h; library: FO5A; assay format: 2D, 384-well, CellTiter-Glo
Outline: as §1

FMOC24 = patient-derived high-grade serous ovarian cancer cells; settings: 72 h; library: FO5A; assay format: 2D, 384-well, CellTiter-Glo
Outline: as §1

FMOC25_1 = patient-derived low-grade serous ovarian cancer cells; settings: 72 h; library: FO4B; assay format: 2D, 384-well, CellTiter-Glo
Outline: as §1

FMOC25_2 = patient-derived low-grade serous ovarian cancer cells; settings: 72 h; library: FO5A; assay format: 2D, 384-well, CellTiter-Glo
Outline: as §1

FMOC27 = patient-derived low-grade serous ovarian cancer cells; settings: 72 h; library: FO5A; assay format: 2D, 384-well, CellTiter-Glo
Outline: as §1

FMOC28 = patient-derived low-grade serous ovarian cancer cells; settings: 72 h; library: FO5A; assay format: 2D, 384-well, CellTiter-Glo
Outline: as §1

SMILES | drug sensitivity score (FMOC02_1) | drug sensitivity score (FMOC02_2) | drug sensitivity score (FMOC02_3) | drug sensitivity score (FMOC03) | drug sensitivity score (FMOC04) | drug sensitivity score (FMOC06) | drug sensitivity score (FMOC09) | drug sensitivity score (FMOC11) | drug sensitivity score (FMOC14) | drug sensitivity score (FMOC17) | drug sensitivity score (FMOC22) | drug sensitivity score (FMOC24) | drug sensitivity score (FMOC25_1) | drug sensitivity score (FMOC25_2) | drug sensitivity score (FMOC27) | drug sensitivity score (FMOC28)
Cc1ccc(-n2nc(C(C)(C)C)cc2NC(=O)Nc2ccc(OCCN3CCOCC3)c3ccccc23)cc1 [Doramapimod] | 0.1 | 0 | 0 | 0 | 0 | 0 | 0.8 | 2.4 | 0 | 0.4 | 0.3 | 1.85 | 0.8 | 0.1 | 0.1 | 7.1
CN1CCN(c2ccc3nc(-c4c(N)c5c(F)cccc5[nH]c4=O)[nH]c3c2)CC1 [Dovitinib] | 0.6 | 1.4 | 1.1 | 0 | 0 | 0 | 0 | 0.1 | 0 | 0 | 0 | 1.6 | 0.2 | 0.4 | 0 | 1
C[C@H](Nc1ncnc2nc[nH]c12)c1cc2cccc(Cl)c2c(=O)n1-c1ccccc1 [Duvelisib] | 0 | 0.1 | 0 | 0 | 0 | 1 | 0 | 0.7 | 0 | 0.5 | 0 | 0.65 | 0 | 0 | 0.1 | 0
Cc1cc(C)c(CNC(=O)c2cc(-c3ccc(CN4CCOCC4)cc3)cc3c2cnn3C2CCCC2)c(=O)[nH]1 [EPZ-5687] | 0.4 | 0.9 | 1.5 | 0.6 | 0.05 | 0 | 0 | 0 | 0 | 0.1 | 0.6 | 1.7 | 0 | 1.8 | 3.1 | 5.1
COC(=O)N[C@@H](C)CNc1nccc(-c2cn(C(C)C)nc2-c2cc(Cl)cc(NS(C)(=O)=O)c2F)n1 [Encorafenib] | 4.2 | 0 | 0.9 | 0 | 0 | 0 | 0 | 0 | 0 | 0 | 0 | 0 | 0.2 | 3.3 | 0 | 0
c1cn2cc(-c3ccc4cn[nH]c4c3)nc(Nc3ccc(N4CCOCC4)cc3)c2n1 [Entospletinib] | 4.3 | 3.2 | 0 | 0 | 0 | 0 | 0 | 0.7 | 0 | 1.8 | 0 | 0 | 0.1 | 0 | 0 | 0
CNC(=O)c1ccc(N2C(=S)N(c3ccc(C#N)c(C(F)(F)F)c3)C(=O)C2(C)C)cc1F [Enzalutamide] | 0 | 0 | 0 | 0 | 0 | 0.1 | 0 | 0 | 0 | 0 | 0 | 0 | 0 | 0 | 0.1 | 0
Cn1cc(C2=C(c3cn(C4CCN(Cc5ccccn5)CC4)c4ccccc34)C(=O)NC2=O)c2ccccc21 [Enzastaurin] | 4.8 | 4.4 | 5.8 | 0.5 | 0 | 0 | 1.5 | 0 | 5 | 5.1 | 0.3 | 3.95 | 0 | 0 | 0.3 | 0
NS(=O)(=O)NCCNc1nonc1/C(=N/O)Nc1ccc(F)c(Br)c1 [Epacadostat] | 0 | 0 | 0.4 | 0 | 0 | 0.1 | 0 | 0 | 0 | 0 | 0 | 0.1 | 0 | 0 | 0 | 0.9
C=C1C[C@@H]2[C@H](CC[C@]3(C)C(=O)CC[C@@H]23)[C@@]2(C)C=CC(=O)C=C12 [Exemestane] | 0 | 0 | 0 | 0 | 0 | 0.4 | 0 | 0 | 0 | 0 | 0 | 0.35 | 0 | 0 | 0 | 0
O=C(Nc1nc2cccc(-c3ccc(CN4CCS(=O)(=O)CC4)cc3)n2n1)C1CC1 [Filgotinib] | 2.6 | 2.9 | 6.1 | 0 | 0 | 1.3 | 0.4 | 0 | 0 | 3.3 | 0 | 3.1 | 1.9 | 3.9 | 5 | 5.2
CC(C)(C)NC(=O)[C@H]1CC[C@H]2[C@@H]3CC[C@H]4NC(=O)C=C[C@]4(C)[C@H]3CC[C@]12C [Finasteride] | 0 | 0 | 0 | 0 | 0 | 0 | 0 | 0 | 0 | 0 | 0 | 1.1 | 0 | 0 | 0 | 0
Nc1nc(F)nc2c1ncn2[C@@H]1O[C@H](CO)[C@@H](O)[C@@H]1O [Fludarabine] | 3 | 0.5 | 2 | 0 | 0 | 0.9 | 0.8 | 0 | 0 | 0 | 1.3 | 0 | 4.3 | 1.9 | 0 | 0
O=c1[nH]cc(F)c(=O)[nH]1 [Fluorouracil] | 2.3 | 1.8 | 3.6 | 0 | 2.65 | 0 | 0 | 0 | 0 | 1 | 2.2 | 0.1 | 3.1 | 4.3 | 0 | 1.2
CC(C)C(=O)Nc1ccc([N+](=O)[O-])c(C(F)(F)F)c1 [Flutamide] | 0 | 0 | 0 | 0 | 0.05 | 0 | 0 | 0 | 0 | 0 | 0 | 2.1 | 0 | 0 | 0 | 0
COc1cc2c(Oc3ccc(NC(=O)C4(C(=O)Nc5ccc(F)cc5)CC4)cc3F)ccnc2cc1OCCCN1CCOCC1 [Foretinib] | 2.6 | 1.9 | 3.2 | 0 | 1.1 | 3.1 | 1.1 | 0.8 | 0.6 | 1.7 | 0.5 | 1.35 | 0.6 | 2.4 | 2.2 | 0
COc1cc(Nc2ncc(F)c(Nc3ccc4c(n3)N(COP(=O)(O)O)C(=O)C(C)(C)O4)n2)cc(OC)c1OC [Fostamatinib] | 6.7 | 3.5 | 7.6 | 2.3 | 0 | 2.6 | 1.2 | 2.6 | 0 | 3.4 | 0.4 | 3.6 | 8.6 | 6.6 | 1.1 | 1.9
C[C@]12CC[C@@H]3c4ccc(O)cc4C[C@@H](CCCCCCCCC[S+]([O-])CCCC(F)(F)C(F)(F)F)[C@H]3[C@@H]1CC[C@@H]2O (stereo partly drawn) [Fulvestrant] | 0 | 0 | 0 | 0 | 0 | 0 | 0 | 0 | 0 | 0 | 0 | 0 | 0 | 0 | 0 | 0
CNc1nc(Nc2cn(C(C)(C)C#N)nc2C)ncc1C(F)(F)F [GNE-0877] | 0 | 0 | 0 | 0 | 0 | 0 | 0 | 0 | 0 | 0 | 0 | 0 | 0 | 0 | 0 | 0
CCNc1nc(Nc2cc(F)c(C(=O)N3CCOCC3)cc2OC)ncc1C(F)(F)F [GNE-7915] | 0 | 0 | 1 | 0 | 0 | 0 | 0 | 0 | 0 | 0 | 0 | 0 | 0 | 0 | 0 | 2
CCCc1cc(C)[nH]c(=O)c1CNC(=O)c1cc(-c2ccnc(N3CCN(C)CC3)c2)cc2c1cnn2C(C)C [GSK343] | 0 | 0 | 0 | 0 | 0 | 0 | 0.1 | 0 | 0 | 0.3 | 0 | 0.55 | 1.6 | 0.1 | 0 | 2
CCCOc1ccn2c(C(C)=O)cc(-c3ccccc3S(C)(=O)=O)c2c1 [GSK2801] | 0 | 0.1 | 0 | 0 | 0 | 0 | 0 | 0 | 0 | 0 | 0 | 0 | 0 | 1.5 | 0 | 4.9
C[C@@H]1C=C2C(=O)O[C@@H]3CC[C@H](C1)[C@]23O [Galiellalactone] | 5.9 | 5.9 | 2.3 | 3.9 | 5.9 | 2.5 | 6.7 | 4 | 5.5 | 5.8 | 4.2 | 1.65 | 0 | 4.6 | 3.8 | 6.7
